The record followed here is patent publication US20220041578A1, “ISOINDOLINE COMPOUND, AND PREPARATION METHOD, PHARMACEUTICAL COMPOSITION, AND APPLICATION OF ISOINDOLINE COMPOUND” (Shanghai Institute of Meteria Medica, Chinese Academy of …, priority 2018, published 2022).

Bounds are passed on as bounds.

The IC50 is the midpoint of a concentration-inhibition curve.

The subject of this experiment is MM.1S cells. The experiment can be described thus: Effect of the compound on the proliferation of MM.1S cells (MTS). In kind it is cell-based. As to conditions: Homo sapiens, MM1.S, 168 h, 7 days, read-out: Cell inhibitory activity (IC50). Here is the method:
MM.1S cells were cultured with 1640 plus 10% fetal bovine serum and collected. The cell concentration was diluted according to the action time of 7 days, and 180 ul cell suspension was added to each well of the 96-well cell plate to make the cell count to be 20,000. 20 ul of DMSO with a final concentration of 0.2% was added to the control cell wells. The compound was diluted 5-fold with the 10 mM stock solution, and 20 ul was also added to the compound cell wells (the final concentration of DMSO is 0.2%). The cells were placed in a 37° C., 5% CO2 incubator and incubated for 7 days. After preparing the reaction solution according to the MTS kit (Promega, G5430), 20 μL was added to each well, incubated in a 37° C., 5% CO2 incubator for 3-4 h. Read the 490 nm absorbance value with a microtiter plate, and used the 690 nm absorbance value as the background value and OD490-OD690 as the final initial data. The formula for calculating the inhibition rate of the compound is: inhibition rate=(OD DMSO-ODcompound)/(ODDMSO-Oblank)×100%. The compound's proliferation inhibition IC50 was fitted by Graph Pad Prism 5.0. The experiment was repeated three times, and three parallel experiments were used to calculate the average and standard deviation each time.
Consider `O=C1CCC(N2Cc3c(OCc4cn(Cc5ccccc5)nn4)cccc3C2=O)C(=O)N1` (centres unmarked) [Compound 1], for which the IC50 was less than 150 nM.

Regarding `O=C1CCC(N2Cc3c(OCc4cn(Cc5ccncc5)nn4)cccc3C2=O)C(=O)N1` (centres unmarked) [Compound 2], the 50% inhibitory concentration (IC50) lay within 150 to 20000 nM.

For `O=C1CCC(N2Cc3c(OCc4cn(Cc5cccnc5)nn4)cccc3C2=O)C(=O)N1` (centres unmarked) [Compound 3], the IC50 lay within 150 to 20000 nM.

Turning to `O=C1CCC(N2Cc3c(OCc4cn(Cc5ccnc6ccccc56)nn4)cccc3C2=O)C(=O)N1` (centres unmarked) [Compound 4], the IC50 was less than 150 nM.

With `COc1cccc(Cn2cc(COc3cccc4c3CN(C3CCC(=O)NC3=O)C4=O)nn2)c1` (centres unmarked) [Compound 5], the IC50 is less than 150 nM.

With `O=C1CCC(N2Cc3c(OCc4cn(Cc5cccc(C(F)(F)F)c5)nn4)cccc3C2=O)C(=O)N1` (centres unmarked) [Compound 6, 3-(1-oxo-4-((1-(3-(trifluoromethyl)benzyl)-1H-1,2,3-triazol-4-)methoxy)isoindolin-2-) piperidine-2,6-dione], the IC50 is less than 150 nM.

Turning to `O=C1CCC(N2Cc3c(OCc4cn(Cc5cccc(N6CCOCC6)c5)nn4)cccc3C2=O)C(=O)N1` (centres unmarked) [Compound 7, 3-(4-((1-(3-morpholinbenzyl)-1H-1,2,3-triazol-4-)methoxy)-1-oxoisoindolin-2-) piperidine-2,6-dione], the IC50 is less than 150 nM.

As for `O=C1CCC(N2Cc3c(OCc4cn(Cc5ccc(N6CCOCC6)cc5)nn4)cccc3C2=O)C(=O)N1` (centres unmarked) [Compound 8, 3-(4-((1-(4-morpholinbenzyl)-1H-1,2,3-triazol-4-)methoxy)-1-oxoisoindolin-2-) piperidine-2,6-dione], the IC50 was less than 150 nM.

Turning to `CN(C)c1cccc(Cn2cc(COc3cccc4c3CN(C3CCC(=O)NC3=O)C4=O)nn2)c1` (centres unmarked) [Compound 9], the IC50 was less than 150 nM.

Consider `COC(=O)c1cccc(Cn2cc(COc3cccc4c3CN(C3CCC(=O)NC3=O)C4=O)nn2)c1` (centres unmarked) [Compound 10, Methyl 3-((4-(((2-(2,6-dioxopiperidin-3-)-1-oxoisoindolin-4-)oxo)methyl)-1H-1,2,3-triazol-1-)methyl) benzoate], for which the IC50 is less than 150 nM.

Consider `O=C1CCC(N2Cc3c(OCc4cn(Cc5cccc(OC(F)(F)F)c5)nn4)cccc3C2=O)C(=O)N1` (centres unmarked) [Compound 11], for which the IC50 was less than 150 nM.

For `O=C1CCC(N2Cc3c(OCc4cn(Cc5ccc(CN6CCOCC6)cc5)nn4)cccc3C2=O)C(=O)N1` (centres unmarked) [Compound 12, 3-(4-((1-(4-(morpholinomethyl)benzyl)-1H-1,2,3-triazol-4-)methoxy)-1-oxoisoindolin-2-) piperidine-2,6-dione], the IC50 is less than 150 nM.

For `O=C1CCC(N2Cc3c(OCc4cn(Cc5ccc6[nH]cnc6c5)nn4)cccc3C2=O)C(=O)N1` (centres unmarked) [Compound 13], the IC50 lay within 150 to 20000 nM.

With `O=C1CCC(N2Cc3c(OCc4cn(Cc5cccc(-n6ccnc6)c5)nn4)cccc3C2=O)C(=O)N1` (centres unmarked) [Compound 14, 3-(4-((1-(3-(1H-imidazol-1-)benzyl)-1H-1,2,3-triazol-4-)methoxy)-1-oxoisoindolin-2-) piperidine-2,6-dione], the IC50 is less than 150 nM.

Regarding `O=C1CCC(N2Cc3c(OCc4cn(-c5ccccc5)nn4)cccc3C2=O)C(=O)N1` (centres unmarked) [Compound 15, 3-(1-oxo-4-((1-phenyl-1H-1,2,3-triazol-4-)methoxy)isoindolin-2-) piperidine-2,6-dione], the IC50 was less than 150 nM.

As for `O=C1CCC(N2Cc3c(OCc4cn(-c5cccc(O)c5)nn4)cccc3C2=O)C(=O)N1` (centres unmarked) [Compound 16, 3-(4-((1-(3-hydroxyphenyl)-1H-1,2,3-triazol-4-)methoxy)-1-oxoisoindolin-2-) piperidine-2,6-dione], the IC50 was less than 150 nM.

As for `O=C1CCC(N2Cc3c(OCc4cn(-c5ccc(O)cc5)nn4)cccc3C2=O)C(=O)N1` (centres unmarked) [Compound 21, 3-(4-((1-(4-hydroxyphenyl)-1H-1,2,3-triazol-4-)methoxy)-1-oxoisoindolin-2-) piperidine-2,6-dione], the IC50 was less than 150 nM.

In the case of `O=C1CCC(N2Cc3c(OCc4cn(-c5cccc(N6CCOCC6)c5)nn4)cccc3C2=O)C(=O)N1` (centres unmarked) [Compound 22, 3-(4-((1-(3-morpholinophenyl)-1H-1,2,3-triazol-4-)methoxy)-1-oxoisoindolin-2-) piperidine-2,6-dione], the IC50 was less than 150 nM.

Consider `CN(C)CCn1ccc2cc(-n3cc(COc4cccc5c4CN(C4CCC(=O)NC4=O)C5=O)nn3)ccc21` (centres unmarked) [Compound 27, 3-(4-((1-(1-(2-(dimethylamino)ethyl)-1H-indol-5-)-1H-1,2,3-triazol-4-)methoxy)-1-oxoisoindolin-2-)piperidine-2,6-dione], for which the IC50 is less than 150 nM.

Consider `O=C1CCC(N2Cc3c(OCc4cn(-c5ccc(OC6COC6)cc5)nn4)cccc3C2=O)C(=O)N1` (centres unmarked) [Compound 31, 3-(4-((1-(4-(epoxypropanoxy-3-oxy)phenyl)-1H-1,2,3-triazol-4-)methoxy)-1-oxoisoindolin-2-)piperidine-2,6-dione], for which the IC50 is less than 150 nM.

With `O=C1CCC(N2Cc3c(OCc4cn(-c5ccc(OC6CC6)cc5)nn4)cccc3C2=O)C(=O)N1` (centres unmarked) [Compound 32], the IC50 was less than 150 nM.

As for `O=C1CCC(N2Cc3c(OCc4cn(-c5ccc(CCO)cc5)nn4)cccc3C2=O)C(=O)N1` (centres unmarked) [Compound 33], the IC50 is less than 150 nM.

Regarding `C[C@]1(N2Cc3c(OCc4cn(-c5ccc(OC(F)(F)F)cc5)nn4)cccc3C2=O)CCC(=O)NC1=O` [Compound 34], the IC50 was 150 to 20000 nM.

For the compound `C[C@]1(N2C(=O)c3cccc(OCc4cn(-c5ccc(OC(F)(F)F)cc5)nn4)c3C2=O)CCC(=O)NC1=O` [Compound 35], the IC50 was 150 to 20000 nM.

Turning to `COCCn1ccc2cc(-n3cc(COc4cccc5c4CN([C@@]4(C)CCC(=O)NC4=O)C5=O)nn3)ccc21` [Compound 36, (S)-3-(4-((1-(1-(2-methoxyethyl)-1H-indol-5-)-1H-1,2,3-triazol-4-)methoxy)-1-oxoisoindolin-2-)-3-methylpiperidine-2,6-dione], the IC50 was in the range of 150 to 20000 nM.

As for `COCCn1ccc2cc(-n3cc(COc4cccc5c4C(=O)N([C@@]4(C)CCC(=O)NC4=O)C5=O)nn3)ccc21` [Compound 37, (S)-4-((1-(1-(2-methoxyethyl)-1H-indole-5-)-1H-1,2,3-triazol-4-)methoxy)-2-(3-methyl-2,6-dioxopiperidine-3-) isoindolin-1,3-dione], the IC50 is 150 to 20000 nM.

As for `O=C1CCC(N2C(=O)c3cccc(OCc4cn(-c5ccc(OC(F)(F)F)cc5)nn4)c3C2=O)C(=O)N1` (centres unmarked) [Compound 38, 2-(2,6-dioxopiperidine-3-)-4-((1-(4-trifluoromethoxyphenyl)-1H-1,2,3-triazol-4-)methoxy) isoindolin-1,3-dione], the IC50 was in the range of 150 to 20000 nM.

For `O=C1CCC(N2Cc3c(OCc4cnc(-c5nc6ccccc6s5)s4)cccc3C2=O)C(=O)N1` (centres unmarked) [Compound 46, 3-(4-(2-(benzo[d]thiazol-2-)thiazol-5-)methoxy)-1-oxoisoindolin-2-) piperidine-2,6-dione], the IC50 was less than 150 nM.

Turning to `O=C1CCC(N2Cc3c(OCc4cnc(-c5ncc(C(F)(F)F)s5)s4)cccc3C2=O)C(=O)N1` (centres unmarked) [Compound 47], the IC50 was less than 150 nM.

As for `O=C1CCC(N2Cc3c(OCc4cn(CC5CCOCC5)nn4)cccc3C2=O)C(=O)N1` (centres unmarked) [Compound 48, 3-(1-oxo-4-((1-((tetrahydro-2H-pyran-4-)methyl)-1H-1,2,3-triazol-4-)methoxy)isoindolin-2-) piperidine-2,6-dione], the IC50 was 150 to 20000 nM.

On to `O=C1CCC(N2Cc3c(OCc4cn(CCc5ccccc5)nn4)cccc3C2=O)C(=O)N1` (centres unmarked) [Compound 49], for which the IC50 was less than 150 nM.

Regarding `C[C@H](c1ccccc1)n1cc(COc2cccc3c2CN(C2CCC(=O)NC2=O)C3=O)nn1` (some centres unmarked) [Compound 50], the IC50 is less than 150 nM.

`C[C@@H](c1ccccc1)n1cc(COc2cccc3c2CN(C2CCC(=O)NC2=O)C3=O)nn1` (some centres unmarked) [Compound 51]: the concentration for half-maximal inhibition (IC50) is less than 150 nM.

For `COC[C@@H](Cc1ccccc1)n1cc(COc2cccc3c2CN(C2CCC(=O)NC2=O)C3=O)nn1` (some centres unmarked) [Compound 52], the IC50 is less than 150 nM.

For the compound `O=C1CCC(N2Cc3c(OCc4cn([C@@H](CO)Cc5ccccc5)nn4)cccc3C2=O)C(=O)N1` (some centres unmarked) [Compound 53], the IC50 is less than 150 nM.

In the case of `O=C1CCC(N2Cc3c(OCc4cn([C@H](CO)Cc5ccccc5)nn4)cccc3C2=O)C(=O)N1` (some centres unmarked) [Compound 54], the IC50 lay in the range of 150 to 20000 nM.

On to `CN(C)C[C@H](Cc1ccccc1)n1cc(COc2cccc3c2CN(C2CCC(=O)NC2=O)C3=O)nn1` (some centres unmarked) [Compound 56], for which the IC50 was less than 150 nM.

`CN(C)C[C@@H](Cc1ccccc1)n1cc(COc2cccc3c2CN(C2CCC(=O)NC2=O)C3=O)nn1` (some centres unmarked) [Compound 57]: the IC50 was less than 150 nM.

As for `C[C@H](Cc1ccccc1)n1cc(COc2cccc3c2CN(C2CCC(=O)NC2=O)C3=O)nn1` (stereo partly drawn) [Compound 58, 3-(1-oxo-4-((1-((R)-1-phenylpropyl-2-)-1H-1,2,3-triazol-4-)methoxy)isoindolin-2-) piperidine-2,6-dione], the IC50 was less than 150 nM.

Take `C[C@@H](Cc1ccccc1)n1cc(COc2cccc3c2CN(C2CCC(=O)NC2=O)C3=O)nn1` (stereo partly drawn) [Compound 59, 3-(1-oxo-4-((1-((S)-1-phenylpropyl-2-)-1H-1,2,3-triazol-4-)methoxy)isoindolin-2-) piperidine-2,6-dione]: the IC50 was less than 150 nM.

`O=C1CCC(N2Cc3c(OCCc4cn(-c5ccccc5)nn4)cccc3C2=O)C(=O)N1` (centres unmarked) [Compound 60, 3-(1-oxo-4-(2-(1-phenyl-1H-1,2,3-triazol-4-)ethoxy)isoindolin-2-) piperidine-2,6-dione]: the IC50 is more than 20000 nM.
